Like-named read-outs stand apart in the source and are kept apart here.
Experiments:
[1] = design: method as in PMID 19659515; conditions: cited from earlier work
[2] = test system: DU-145 prostate cancer cell lines; test: Cellular uptake and washout experiments in vitro; assay type: cell-based; conditions: DU-145 cells
Protocol: Radiotracer uptake studies were performed in monolayer cultures of DU-145 prostate cancer cell lines, which were obtained from ATCC (Manassas, VA, USA). Cells were grown in cell culture dishes in RPMI 1640 medium with phenol red, 10% heat-inactivated fetal bovine serum (FBS), 100-μg/mL glutamine, 100-units/mL penicillin, and 100-μg/mL streptomycin at 37°C in a humidified atmosphere of 95% air and 5% carbon dioxide. Cells were plated on 6-well tissue culture plates (4 × 10^5 cells/well) for 24 h before the study and incubated at 37°C in the culture medium without FBS containing (+)-^125I]IV-OH or (+)-^125I]pIV (3.7 kBq/well), which was prepared by a method of a previous study for different time intervals (15, 30, 60, and 120 min). For the washout experiment, tumor cells exposed to a medium containing (+)-^125I]IV-OH or (+)-^125I]pIV for 60 min were washed with phosphate buffered saline (PBS) and incubated in fresh (nonradioactive) medium without FBS at 37°C for 15, 30, and 60 min. […] After incubation, cells were washed twice with ice-cold PBS and resolved by adding 0.5 mL of 1-M NaOH. The solutions were then collected and the radioactivity was determined with an auto well gamma counter (ARC-380; Aloka) and corrected for background radiation. The radioactivity of each sample was normalized for the protein level, which was determined using a Protein Assay Bicinchoninate Kit (Nacalai Tesque).

sigma-2 receptor = target: T1, sigma-2 receptor (Rattus norvegicus, UniProt Q5U3Y7); test: Sigma-2 receptor competitive binding assay ([3H]DTG, rat liver membranes, (+)-pentazocine mask)
T1 construct: from tissue; host or cells: rat liver (male Sprague-Dawley rats)
T1 sequence (Q5U3Y7 1-176): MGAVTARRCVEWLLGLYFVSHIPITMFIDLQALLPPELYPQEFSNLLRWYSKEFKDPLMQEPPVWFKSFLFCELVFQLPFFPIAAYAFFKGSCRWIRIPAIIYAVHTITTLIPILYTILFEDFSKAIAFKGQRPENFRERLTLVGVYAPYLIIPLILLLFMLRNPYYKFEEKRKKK
Protocol: (§1) Animal experimental protocols were approved by the Committee on Animal Experimentation of Kanazawa University. Experiments with animals were conducted in accordance with the Guidelines for the Care and Use of Laboratory Animals of Kanazawa University. The animals were housed with free access to food and water at 23°C with a 12-h alternating light/dark schedule. The rat brain and liver membranes for binding experiments were prepared from rat brains without cerebellum and rat liver in male Sprague–Dawley rats (200 g, Japan SLC, Inc., Hamamatsu, Japan), respectively, using a method described previously.
A sigma-2 receptor binding assay was performed using the following method. […] The incubated samples were treated in the same manner as described for the sigma-1 receptor binding assays.

sigma-1 receptor [3] = target: T2, sigma-1 receptor (Rattus norvegicus, UniProt Q9R0C9); test: Sigma-1 receptor competitive binding assay ((+)-[3H]pentazocine, rat cerebral membranes)
T2 construct: from tissue; host or cells: rat brain without cerebellum (male Sprague-Dawley rats)
Protocol: as §1
A sigma-1 receptor binding assay was performed using the following method. […] The incubated samples were quickly diluted with 5 mL of ice-cold Tris–HCl (pH 7.8) buffer followed by rapid filtration through Whatman Grade GF/B glass fiber filters (GE Healthcare UK Ltd., Amersham, UK) presoaked in 0.5% polyethylenimine using a cell harvester (Brandel, Gaithersburg, MD, USA). Filters were washed three times with 5 mL of ice-cold buffer. […] Radioactivity retained on the filters was measured with a liquid scintillation counter (LSC-5100; Aloka, Tokyo, Japan).

sigma receptors = test: Blocking studies with excess sigma ligand in DU-145 tumor-bearing mice; assay type: in vivo; conditions: 10 μmol/kg i.v. co-injection, 1-h post-injection
Protocol: At 1-h post-injection, the mice were killed, and biodistribution experiments were conducted as described above.

sigma-1 receptor [4] = target: T2, sigma-1 receptor; design: method as in PMID 15670917; conditions: cited from earlier work
[5] = rat liver membranes, 5-nM [3H]DTG, 1-μM (+)-pentazocine mask, Ki from IC50, means (SEM) of three or four experiments
[6] = rat cerebral membranes, 5-nM (+)-[3H]pentazocine, Ki from IC50, means (SEM) of three or four experiments

T2 sequence (Q9R0C9 whole entry): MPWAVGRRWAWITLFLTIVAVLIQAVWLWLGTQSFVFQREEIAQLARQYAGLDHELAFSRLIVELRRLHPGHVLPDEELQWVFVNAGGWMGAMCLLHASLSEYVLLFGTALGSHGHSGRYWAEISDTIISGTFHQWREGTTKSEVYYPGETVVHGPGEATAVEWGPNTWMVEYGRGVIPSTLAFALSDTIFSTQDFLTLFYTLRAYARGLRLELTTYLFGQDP

O[C@H]1CCCC[C@@H]1N1CCC(c2ccc([125I])cc2)CC1 [(+)-[^125I]pIV, reference compound]
log P [1]: 2.08 | time at which uptake was saturated [2]: 30 min | accumulation in the presence of haloperidol ([2]; haloperidol 10 μM in culture medium): remarkably lessened | intracellular radioactivity released into the supernatant ([2]; within 60 min after medium replacement, specific uptake): 44%

Oc1ccc(C2CCN(C3CCCC[C@H]3O)CC2)cc1I (single isomer, unassigned; (+)) [(+)-IV-OH, (+)-4-[1-(2-hydroxycyclohexyl)piperidine-4-yl]-2-iodophenol]
Ki (sigma-2 receptor): 147 nM | Ki (sigma-1 receptor [3]): 22.8 nM | selectivity for sigma-1 subtype over sigma-2 (sigma-1 receptor [3]; in vitro binding assay): approximately 6.4 fold

Oc1ccc(C2CCN(C3CCCCC3O)CC2)cc1I (single isomer, unassigned; (-)) [(−)-IV-OH, (−)-enantiomer of 4-[1-(2-hydroxycyclohexyl)piperidine-4-yl]-2-iodophenol]
Ki (sigma-2 receptor; [5]): 166 nM | Ki (sigma-1 receptor [3]; [6]): 45.5 nM

COc1ccc(CCN2CCN(CCCc3ccccc3)CC2)cc1OC [SA4503]
effect of co-injected ligand on brain to blood uptake ratio of (+)-[^125I]IV-OH (sigma receptors): significant decrease | effect of co-injected ligand on liver uptake of (+)-[^125I]IV-OH (sigma receptors): did not inhibit | effect of co-injected ligand on pancreas to blood uptake ratio of (+)-[^125I]IV-OH (sigma receptors): significant decrease | effect of co-injected ligand on tumor to blood uptake ratio of (+)-[^125I]IV-OH (sigma receptors): significant decrease

Oc1ccc(C2CCN(C3CCCCC3O)CC2)cc1 (single isomer, unassigned; (+)) [(+)-Ves-OH]
Ki (sigma-2 receptor; [5]): 97.2 nM | Ki (sigma-1 receptor [3]; [6]): 179 nM

(+)-Vesamicol [reference compound]
Ki (sigma-2 receptor; [5]): 159 nM

O[C@@H]1CCCCC1N1CCC(c2ccc(I)cc2)CC1 (single isomer, unassigned; (+)) [(+)-pIV, (+)-2-[4-(4-iodophenyl)piperidino]cyclohexanol]
effect of co-injected ligand on brain to blood uptake ratio of (+)-[^125I]IV-OH (sigma receptors): significant decrease | effect of co-injected ligand on pancreas to blood uptake ratio of (+)-[^125I]IV-OH (sigma receptors): significant decrease | effect of co-injected ligand on tumor to blood uptake ratio of (+)-[^125I]IV-OH (sigma receptors): significant decrease | Ki (sigma-1 receptor [4]): 1.3 nM

From publication PMC3524758, “Development and evaluation of a novel radioiodinated vesamicol analog as a sigma receptor imaging agent” (EJNMMI Research, 2012)
